Laboratory results from patent publication US20020183335A1, “2, 4-disubstituted pyrimidine-5-carboxamide derivatives as KCNQ potassium channel modulators” (priority 2001, published 2002).
Marks after values point to notes of the source that are not given here.

Experiments:
[1] = target: cloned mouse KCNQ2 (mKCNQ2) (Mus musculus, UniProt Q9Z351); assay: KCNQ oocyte two-electrode voltage clamp, KCNQ2-mediated outward current; assay type: cell-based; details: expressed as percent increase over KCNQ current in controls, Xenopus oocytes
Experimental: The ability of compounds described in the present invention to open KCNQ channels and increase whole-cell outward (K^+) KCNQ-mediated currents was assessed under voltage-clamp conditions by determining their ability to increase cloned mouse KCNQ2 (mKCNQ2)-mediated, heteromultimeric KCNQ2/3 (KCNQ2/3)-mediated, and human KCNQ5 (hKCNQ5)-mediated outward currents heterologously expressed in Xenopus oocytes. Oocytes were prepared and injected using standard techniques; each oocyte was injected with approximately 50 nl of mKCNQ2, or hKCNQ5 cRNA. In the case of mKCNQ2/3 heteromultimeric channel expression, equal amounts (25-50 nL) of each cRNA were co-injected. […] Following injection, oocytes were maintained at 17° C. in ND96 medium consisting of (in mM): NaCl, 90; KCl, 1.0; CaCl2, 1.0; MgCl2, 1.0; HEPES, 5.0; pH 7.5. Horse serum (5%) and penicillin/streptomycin (5%) were added to the incubation medium. Recording commenced 2-6 days following mRNA injection. Prior to the start of an experiment oocytes were placed in a recording chamber and incubated in Modified Barth's Solution (MBS) consisting of (in mM): NaCl, 88; NaHCO3, 2.4; KCl, 1.0; HEPES, 10; MgSO4, 0.82; Ca(NO3)2, 0.33; CaCl2, 0.41; pH 7.5.
Oocytes were impaled with electrodes (1-2 MΩ) and standard 2-electrode voltage clamp techniques were employed to record whole-cell membrane currents. Recordings were accomplished using standard two-electrode voltage clamp techniques [Stuhmer et al., Methods in Enzymology, Vol. 207: 319-339 (1992)]. Voltage-clamp protocols typically consisted of a series of voltage steps 1-5 sec duration, in +10 mV steps from a holding potential of −90 mV to a maximal potential of +40 mV; records were digitized at 5 kHz and stored on a computer using pclamp data acquisition and analysis software (Axon Instruments). […]

[2] = tested on: SSS-stimulated trigeminal field response; assay: In vivo electrophysiology: superior sagittal sinus (SSS)-stimulated trigeminal field response model of migraine; design: species or system rat
From the text: Male Long-Evans rats (Harlan, 250-400 g) were used in the experiments described in this example. Prior to testing, rats were allowed access to food and water ad libitum and were maintained on a 12:12-h light/dark cycle. Rats were group housed in an Association for Assessment and Accreditation of Laboratory Animal Care (AAALAC) accredited facility and cared for in strict compliance with all applicable regulations.
Rats were anesthetized with 1.2 g/kg i.p. urethane (#U-2500, Sigma Chemical Company, St. Louis, Mo.) and given supplemental urethane as needed. […]
Stimulated field responses were recorded in the trigeminal nucleus caudalis using Teflon coated stainless-steel microelectrodes (5 megaohms impedance, Frederick Haer, Brunswick, Me.) and amplified and filtered (0.1 Hz-10 kHz) using a differential amplifier (#IsoDAM8, World Precision Instruments, Sarasota, Fla.). […]
Three baseline measures (i.e., 100% of control), each consisting of 100 evoked trigeminal field potentials, were sampled prior to drug injection. […] Following injection of test substances, data were sampled for 1 hour, averaged into 5 minute bins (90 evoked potentials) and expressed as a percent change from average baseline values for the purposes of statistical analysis. Data were analyzed using repeated measures analyses of variance comparing vehicle and drug effects. […]

Chain of cloned mouse KCNQ2 (mKCNQ2) (Q9Z351 whole entry): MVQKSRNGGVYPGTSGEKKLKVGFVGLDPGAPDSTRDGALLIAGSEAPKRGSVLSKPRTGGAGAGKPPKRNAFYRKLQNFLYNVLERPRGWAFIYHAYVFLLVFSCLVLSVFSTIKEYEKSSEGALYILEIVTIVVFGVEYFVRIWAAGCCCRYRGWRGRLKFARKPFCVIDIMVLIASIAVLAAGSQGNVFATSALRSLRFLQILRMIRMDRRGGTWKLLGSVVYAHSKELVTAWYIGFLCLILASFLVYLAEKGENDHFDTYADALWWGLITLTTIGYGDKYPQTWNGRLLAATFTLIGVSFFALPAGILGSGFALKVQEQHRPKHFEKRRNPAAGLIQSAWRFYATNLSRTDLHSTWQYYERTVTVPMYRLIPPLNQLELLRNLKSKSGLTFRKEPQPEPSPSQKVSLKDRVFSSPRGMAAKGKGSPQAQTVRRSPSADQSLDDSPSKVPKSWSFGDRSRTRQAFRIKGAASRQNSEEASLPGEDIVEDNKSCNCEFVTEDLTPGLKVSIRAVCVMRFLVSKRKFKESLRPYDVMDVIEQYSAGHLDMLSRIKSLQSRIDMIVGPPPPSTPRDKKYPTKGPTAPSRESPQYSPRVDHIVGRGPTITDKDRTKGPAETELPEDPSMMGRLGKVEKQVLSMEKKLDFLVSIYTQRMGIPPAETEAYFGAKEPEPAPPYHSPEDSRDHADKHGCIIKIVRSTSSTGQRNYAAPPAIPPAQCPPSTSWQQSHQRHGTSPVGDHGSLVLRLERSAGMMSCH

Row | SMILES | KCNQ2 Current ([1]; at 20 μM) | further results
1 | CCCc1nc(N2CCCC2)ncc1C(=O)NCc1ccc(F)cc1 [Example 9, 4-(1-Propyl)-2-(pyrrolidin-1-yl)-N-[(4-fluorophenyl)methyl]pyrimidine-5-carboxamide] | +++ (+++ = >200%) | –
2 | O=C(NCc1ccc(F)cc1)c1cnc(N2CCOCC2)nc1C1CCCCC1 [Example 1, 4-Cyclohexyl-2-(morpholin-1-yl)-N-[(4-fluorophenyl)methyl]pyrimidine-5-carboxamide] | +++ (+++ = >200%) | –
3 | O=C(NCc1ccc(F)cc1)c1cnc(N2CCCC2)nc1C1CCCCC1 [Example 4, 4-Cyclohexyl-2-(pyrrolidin-1-yl)-N-[(4-fluorophenyl)methyl]pyrimidine-5-carboxamide] | +++ (+++ = >200%) | –
4 | O=C(NCc1ccc(C(F)(F)F)cc1)c1cnc(N2CCCC2)nc1C(F)(F)F [Example 19] | – | decrease in field potential compared with vehicle ([2]; 1 mg/kg i.v., 60 minutes following i.v. injection, rat SSS model of migraine, p=0.005): 25.2%; reduction in the SSS-stimulated trigeminal field response ([2]; i.v., rat, overall ANOVA p<0.001): dose-dependent reduction; KCNQ2 Current ([1]; at 5 μM): ++** (++ = 151-200%)

The next lines start with results.

Row | KCNQ2 Current ([1]; at 20 μM) | SMILES | further results
5 | ++ (++ = 151-200%) | O=C(NCc1ccc(C(F)(F)F)cc1)c1cnc(NCc2ccccc2)nc1N1CCCC1 [Example 37, 2-(Phenylmethylamino)-4-(pyrrolidin-1-yl)-N-[[4-(trifluoromethyl)phenyl]methyl]pyrimidine-5-carboxamide] | –
6 | + (+ = 125-150%) | O=C(NCc1ccc(C(F)(F)F)cc1)c1cnc(NCc2ccc(Cl)cc2)nc1N1CCCC1 [Example 39, 2-[(4-Chlorophenyl)methylamino]-4-(pyrrolidin-1-yl)-N-[[4-(trifluoromethyl)phenyl]methyl]-pyrimidine-5-carboxamide] | –
